Measurements from ChEMBL document CHEMBL4715861, “Design, synthesis and biological evaluation of new bivalent quinazoline analogues as IAP antagonists” (Bioorg Med Chem Lett, 2021).
Active and inactive are the calls of the source. The calls are words filed in the database; no cut-off is given here.

Key:
[1] = test system: MDA-MB-231; assay: Cytotoxicity against human MDA-MB-231 cells; type: functional, cell-based
[2] = molecular target: Cytochrome P450 3A4 (Homo sapiens, UniProt P08684); assay: Inhibition of CYP3A4 (unknown origin); type: ADME
Chain of Cytochrome P450 3A4 (P08684 whole entry): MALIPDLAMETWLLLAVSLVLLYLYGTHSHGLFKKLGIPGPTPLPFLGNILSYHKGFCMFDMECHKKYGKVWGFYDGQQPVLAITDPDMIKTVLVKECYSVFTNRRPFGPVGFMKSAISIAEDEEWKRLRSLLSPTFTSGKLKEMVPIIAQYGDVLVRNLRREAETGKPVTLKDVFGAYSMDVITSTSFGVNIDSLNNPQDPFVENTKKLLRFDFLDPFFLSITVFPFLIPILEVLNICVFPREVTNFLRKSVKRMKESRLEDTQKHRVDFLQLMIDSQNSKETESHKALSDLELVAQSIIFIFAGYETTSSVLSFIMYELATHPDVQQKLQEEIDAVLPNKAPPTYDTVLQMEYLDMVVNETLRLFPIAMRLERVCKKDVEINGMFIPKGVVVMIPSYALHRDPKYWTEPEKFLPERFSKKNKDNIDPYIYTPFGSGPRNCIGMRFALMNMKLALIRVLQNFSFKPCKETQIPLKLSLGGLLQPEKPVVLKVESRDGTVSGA

[3] = Stability in dog microsomes assessed as parent compound remaining at 60 mins; type: ADME, Canis lupus familiaris, Microsome; settings: read-out: Stabilty
[4] = Stability in human microsomes assessed as parent compound remaining at 60 mins; type: ADME, Microsome; settings: read-out: Stabilty
[5] = Stability in rat microsomes assessed as parent compound remaining at 60 mins; type: ADME, Microsome; settings: read-out: Stabilty
[6] = Stability in mouse microsomes assessed as parent compound remaining at 60 mins; type: ADME, Microsome; settings: read-out: Stabilty
[7] = test system: BXPC-3; assay: Cytotoxicity against human BxPC3 cells; type: functional, cell-based
[8] = test system: MDA-MB-231; assay: Cytotoxicity against human MDA-MB-231 cells assessed as cell viability at 5 nM (reference value: 98%); type: functional; settings: read-out: Activity
[9] = test system: MDA-MB-231; assay: Cytotoxicity against human MDA-MB-231 cells assessed as cell viability at 2 nM (reference value: 98%); type: functional; settings: read-out: Activity
[10] = molecular target: T1, Cytochrome P450 1A2 (Homo sapiens, UniProt P05177); assay: Inhibition of CYP1A2 (unknown origin); type: ADME
T1 sequence (P05177 whole entry): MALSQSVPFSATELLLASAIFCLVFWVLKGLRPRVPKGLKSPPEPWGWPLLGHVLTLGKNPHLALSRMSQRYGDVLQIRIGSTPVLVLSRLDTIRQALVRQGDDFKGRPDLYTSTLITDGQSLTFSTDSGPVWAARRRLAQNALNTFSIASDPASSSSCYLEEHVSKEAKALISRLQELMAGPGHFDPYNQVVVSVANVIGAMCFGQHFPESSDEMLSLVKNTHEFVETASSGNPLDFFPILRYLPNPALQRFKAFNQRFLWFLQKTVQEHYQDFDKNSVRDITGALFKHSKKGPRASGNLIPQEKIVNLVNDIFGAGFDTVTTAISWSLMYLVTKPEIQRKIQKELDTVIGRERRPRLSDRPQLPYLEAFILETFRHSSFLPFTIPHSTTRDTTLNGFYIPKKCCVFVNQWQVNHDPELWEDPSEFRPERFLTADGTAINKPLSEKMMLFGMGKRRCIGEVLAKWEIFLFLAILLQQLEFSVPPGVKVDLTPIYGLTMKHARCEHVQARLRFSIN

[11] = molecular target: Cytochrome P450 2D6 (Homo sapiens, UniProt P10635); assay: Inhibition of CYP2D6 (unknown origin); type: ADME
Chain of Cytochrome P450 2D6 (P10635 whole entry, the tested form may be a part): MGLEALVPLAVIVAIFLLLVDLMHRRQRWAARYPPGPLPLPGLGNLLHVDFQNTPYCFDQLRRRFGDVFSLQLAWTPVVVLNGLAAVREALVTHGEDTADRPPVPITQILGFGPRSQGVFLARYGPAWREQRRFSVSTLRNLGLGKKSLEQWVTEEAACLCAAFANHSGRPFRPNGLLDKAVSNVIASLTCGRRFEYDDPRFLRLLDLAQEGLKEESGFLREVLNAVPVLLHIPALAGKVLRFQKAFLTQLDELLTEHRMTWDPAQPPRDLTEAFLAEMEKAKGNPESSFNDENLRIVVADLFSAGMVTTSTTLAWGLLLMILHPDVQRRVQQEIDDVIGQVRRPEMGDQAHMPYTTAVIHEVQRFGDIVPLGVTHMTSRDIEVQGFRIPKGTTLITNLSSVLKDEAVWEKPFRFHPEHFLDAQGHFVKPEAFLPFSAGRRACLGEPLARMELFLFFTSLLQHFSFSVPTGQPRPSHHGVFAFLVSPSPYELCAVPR

[12] = molecular target: Baculoviral IAP repeat-containing protein 3 (Homo sapiens) (UniProt Q13489); assay: Induction of degradation of cIAP2-BIR3 domain in human MDA-MB-231 cells; type: cell-based; settings: dose 1-5 nM
Chain of Baculoviral IAP repeat-containing protein 3 (Homo sapiens) (Q13489 whole entry, the tested form may be a part): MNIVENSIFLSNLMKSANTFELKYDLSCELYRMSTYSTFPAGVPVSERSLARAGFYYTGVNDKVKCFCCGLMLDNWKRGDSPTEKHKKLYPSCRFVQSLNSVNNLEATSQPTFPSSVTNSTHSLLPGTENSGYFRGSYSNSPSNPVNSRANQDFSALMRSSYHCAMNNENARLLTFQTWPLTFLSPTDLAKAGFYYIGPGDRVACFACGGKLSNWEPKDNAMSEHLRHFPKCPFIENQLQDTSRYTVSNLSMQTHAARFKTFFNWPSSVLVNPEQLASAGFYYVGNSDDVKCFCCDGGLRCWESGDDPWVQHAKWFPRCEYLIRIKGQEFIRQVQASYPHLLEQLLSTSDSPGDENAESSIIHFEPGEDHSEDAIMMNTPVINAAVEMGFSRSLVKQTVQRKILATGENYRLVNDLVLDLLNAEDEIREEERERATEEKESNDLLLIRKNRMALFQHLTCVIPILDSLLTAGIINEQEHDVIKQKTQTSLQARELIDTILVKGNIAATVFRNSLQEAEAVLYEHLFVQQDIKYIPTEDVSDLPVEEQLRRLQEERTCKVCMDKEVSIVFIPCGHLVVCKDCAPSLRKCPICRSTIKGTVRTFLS

[13] = test system: J82; assay: Cytotoxicity against human J82 cells; type: functional, cell-based
[14] = molecular target: Baculoviral IAP repeat-containing protein 2 (Homo sapiens) (UniProt Q13490); assay: Induction of degradation of cIAP1-BIR3 domain in human MDA-MB-231 cells; type: cell-based; settings: dose 1-5 nM
Chain of Baculoviral IAP repeat-containing protein 2 (Homo sapiens) (Q13490 whole entry, the tested form may be a part): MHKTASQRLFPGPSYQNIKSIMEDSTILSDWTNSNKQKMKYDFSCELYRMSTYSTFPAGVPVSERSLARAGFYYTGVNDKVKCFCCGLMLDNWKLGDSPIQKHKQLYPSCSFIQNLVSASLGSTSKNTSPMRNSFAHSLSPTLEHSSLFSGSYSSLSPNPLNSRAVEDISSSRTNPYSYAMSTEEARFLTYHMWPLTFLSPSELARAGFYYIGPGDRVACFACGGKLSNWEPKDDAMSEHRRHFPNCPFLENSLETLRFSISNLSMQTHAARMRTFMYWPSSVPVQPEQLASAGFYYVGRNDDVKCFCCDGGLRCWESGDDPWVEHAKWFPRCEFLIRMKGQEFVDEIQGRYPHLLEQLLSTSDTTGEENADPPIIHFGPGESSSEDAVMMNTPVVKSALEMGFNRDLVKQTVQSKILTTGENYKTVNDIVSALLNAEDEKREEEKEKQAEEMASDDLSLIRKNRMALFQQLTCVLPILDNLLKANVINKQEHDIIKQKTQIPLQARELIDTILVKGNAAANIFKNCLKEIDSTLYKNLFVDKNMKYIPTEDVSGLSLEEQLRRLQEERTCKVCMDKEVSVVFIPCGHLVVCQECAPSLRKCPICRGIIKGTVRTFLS

[15] = test system: OVCAR-3; assay: Cytotoxicity against human OVCAR-3 cells; type: functional, cell-based
[16] = molecular target: T2, E3 ubiquitin-protein ligase XIAP (Homo sapiens, UniProt P98170); assay: Binding affinity to human XIAP-BIR3 (241 to 356 residues)
T2 sequence (P98170 whole entry, the tested form may be a part): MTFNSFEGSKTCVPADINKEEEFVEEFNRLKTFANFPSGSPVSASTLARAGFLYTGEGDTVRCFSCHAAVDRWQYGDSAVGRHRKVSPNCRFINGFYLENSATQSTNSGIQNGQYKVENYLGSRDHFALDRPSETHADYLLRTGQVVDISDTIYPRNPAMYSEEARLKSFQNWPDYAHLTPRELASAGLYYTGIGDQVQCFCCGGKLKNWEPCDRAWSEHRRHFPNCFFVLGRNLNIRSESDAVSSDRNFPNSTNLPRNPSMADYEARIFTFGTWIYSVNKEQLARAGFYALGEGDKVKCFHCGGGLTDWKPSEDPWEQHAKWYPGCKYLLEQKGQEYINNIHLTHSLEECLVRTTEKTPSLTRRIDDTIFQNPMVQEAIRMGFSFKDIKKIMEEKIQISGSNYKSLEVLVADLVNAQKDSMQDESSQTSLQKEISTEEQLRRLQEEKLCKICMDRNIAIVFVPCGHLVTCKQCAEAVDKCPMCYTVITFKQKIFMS

[17] = test system: MIA PaCa-2; assay: Cytotoxicity against human MIA PaCa-2 cells; type: functional, cell-based
[18] = test system: MCF7; assay: Cytotoxicity against human MCF7 cells; type: functional, cell-based
[19] = test system: PANC-1; assay: Cytotoxicity against human PANC-1 cells; type: functional, cell-based
[20] = molecular target: T2, E3 ubiquitin-protein ligase XIAP; assay: Antagonist activity at XIAP in human MDA-MB-231 cells assessed as fold change in Caspase-3 activation at 1 nM; type: cell-based; settings: filed as antagonist
[21] = test system: HS27; assay: Cytotoxicity against human HS27 cells; type: cell-based
[22] = molecular target: T2, E3 ubiquitin-protein ligase XIAP; assay: Antagonist activity at XIAP in human MDA-MB-231 cells assessed as fold change in Caspase-9 activation at 1 nM; type: cell-based; settings: filed as antagonist
[23] = molecular target: T2, E3 ubiquitin-protein ligase XIAP; assay: Induction of degradation of XIAP-BIR3 domain in human MDA-MB-231 cells; type: cell-based; settings: dose 1-5 nM
[24] = test system: MDA-MB-468; assay: Cytotoxicity against human MDA-MB-468 cells; type: functional, cell-based
[25] = molecular target: Cytochrome P450 2C9 (Homo sapiens, UniProt P11712); assay: Inhibition of CYP2C9 (unknown origin); type: ADME
Chain of Cytochrome P450 2C9 (P11712 whole entry): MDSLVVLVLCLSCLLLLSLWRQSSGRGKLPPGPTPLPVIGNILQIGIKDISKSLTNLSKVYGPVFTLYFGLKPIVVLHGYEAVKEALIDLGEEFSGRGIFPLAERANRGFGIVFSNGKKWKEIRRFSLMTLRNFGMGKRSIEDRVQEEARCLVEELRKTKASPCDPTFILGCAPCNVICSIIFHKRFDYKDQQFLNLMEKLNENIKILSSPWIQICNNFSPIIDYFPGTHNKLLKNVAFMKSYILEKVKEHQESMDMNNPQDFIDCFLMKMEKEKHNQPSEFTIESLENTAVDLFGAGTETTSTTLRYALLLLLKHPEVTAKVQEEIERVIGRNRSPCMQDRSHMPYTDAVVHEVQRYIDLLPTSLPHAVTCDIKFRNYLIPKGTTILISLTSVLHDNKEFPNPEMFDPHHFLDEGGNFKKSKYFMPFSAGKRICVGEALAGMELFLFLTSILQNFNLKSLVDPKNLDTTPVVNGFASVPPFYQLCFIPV

[26] = molecular target: Cytochrome P450 2C19 (Homo sapiens, UniProt P33261); assay: Inhibition of CYP2C19 (unknown origin); type: ADME
Chain of Cytochrome P450 2C19 (P33261 whole entry): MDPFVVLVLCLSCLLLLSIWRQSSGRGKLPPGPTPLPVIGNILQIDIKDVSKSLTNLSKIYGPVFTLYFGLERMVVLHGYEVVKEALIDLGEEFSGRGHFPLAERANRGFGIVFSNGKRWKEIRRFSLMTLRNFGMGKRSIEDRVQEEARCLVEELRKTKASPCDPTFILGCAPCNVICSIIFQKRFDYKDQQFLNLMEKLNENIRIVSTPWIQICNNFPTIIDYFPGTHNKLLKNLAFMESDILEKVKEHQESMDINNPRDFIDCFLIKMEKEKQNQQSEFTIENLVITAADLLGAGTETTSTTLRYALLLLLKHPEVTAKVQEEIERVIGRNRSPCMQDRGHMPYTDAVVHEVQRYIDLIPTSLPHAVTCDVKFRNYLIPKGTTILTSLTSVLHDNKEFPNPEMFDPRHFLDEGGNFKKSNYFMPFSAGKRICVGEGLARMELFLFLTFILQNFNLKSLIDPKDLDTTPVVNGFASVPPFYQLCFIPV

[27] = test system: MDA-MB-231; assay: Cytotoxicity against human MDA-MB-231 cells assessed as cell viability at 1 nM (reference value: 98%); type: functional; settings: read-out: Activity
[28] = test system: MDA-MB-231; assay: Antitumour activity against in human MDA-MB-231 cells xenografted in mouse assessed as reduction in tumour burdens at 3 mg/kg, iv administered for 14 days and measured after 30 days; type: functional, organism-based; settings: time 14.0 day
[29] = Toxicity in mouse xenografted with human MDA-MB-231 cells assessed as reduction in weight at 3 mg/kg, iv administered for 14 days and measured after 30 days; type: organism-based; settings: in vivo, 336 h, time 14 day
[30] = Toxicity in mouse xenografted with human MDA-MB-231 cells assessed as inflammation around injection site at 3 mg/kg, iv after 6 days; type: organism-based; settings: in vivo, 144 h, time 6 day

CN[C@@H](C)C(=O)N[C@H](C(=O)N1CCC[C@H]1C(=O)Nc1cc2c(Nc3ccc(OCC#CC#CCOc4ccc(Nc5ncnc6cc(OC)c(NC(=O)[C@@H]7CCCN7C(=O)[C@@H](NC(=O)[C@H](C)NC)C(C)(C)C)cc56)cn4)nc3)ncnc2cc1OC)C(C)(C)C
IC50 [1]: 0.0346 µM

CN[C@@H](C)C(=O)N[C@H](C(=O)N1CCC[C@H]1C(=O)Nc1cc2c(N[C@H]3CC[C@@H](Nc4ncnc5cc(OC)c(NC(=O)[C@@H]6CCCN6C(=O)[C@@H](NC(=O)[C@H](C)NC)C(C)(C)C)cc45)CC3)ncnc2cc1OC)C(C)(C)C
IC50 [1]: 0.00593 µM
IC50 [2]: 5.53 µM

CN[C@@H](C)C(=O)N[C@H](C(=O)N1CCC[C@H]1C(=O)Nc1cc2c(NCC#CC#CCNc3ncnc4cc(OC)c(NC(=O)[C@@H]5CCCN5C(=O)[C@@H](NC(=O)[C@H](C)NC)C(C)(C)C)cc34)ncnc2cc1OC)C(C)(C)C
remaining at 1 h [3]: 65%
remaining at 1 h [4]: 64%
IC50 [1]: 0.0003 µM
remaining at 1 h [5]: 87%
remaining at 1 h [6]: 62%

CN[C@@H](C)C(=O)N[C@H](C(=O)N1CCC[C@H]1C(=O)Nc1cc2c(N[C@H]3CC[C@H](Nc4ncnc5cc(OC)c(NC(=O)[C@@H]6CCCN6C(=O)[C@@H](NC(=O)[C@H](C)NC)C(C)(C)C)cc45)CC3)ncnc2cc1OC)C(C)(C)C
remaining at 1 h [3]: 63%
IC50 [7]: 0.0002 µM
viability at 0.005 µM [8]: 30%
remaining at 1 h [4]: 86%
viability at 0.002 µM [9]: 42%
IC50 [10]: > 50 µM
IC50 ([11]; read-out: IC50): > 50 µM
Activity [12]: Dose-dependent effect
IC50 [13]: 0.0174 µM
Activity [14]: Dose-dependent effect
IC50 [15]: 0.0002 µM
Ki [16]: 0.064 µM
IC50 [17]: 0.0001 µM
IC50 [18]: 0.0192 µM
IC50 [1]: 0.00014 µM
IC50 [19]: 0.0009 µM
fold change (FC) [20]: 3.4
IC50 [21]: > 10 µM
fold change (FC) [22]: 10.7
Activity [23]: Dose-dependent effect
IC50 [24]: 0.0278 µM
remaining at 1 h [5]: 100%
remaining at 1 h [6]: 94%
IC50 [25]: 43.6 µM
IC50 [26]: 35.7 µM
IC50 [2]: 3.56 µM
viability at 0.001 µM [27]: 67%
Activity [28]: Active
Activity [29]: Non-Toxic

CN[C@@H](C)C(=O)N[C@H](C(=O)N1CCC[C@H]1C(=O)Nc1cc2c(NC[C@H]3CC[C@H](CNc4ncnc5cc(OC)c(NC(=O)[C@@H]6CCCN6C(=O)[C@@H](NC(=O)[C@H](C)NC)C(C)(C)C)cc45)CC3)ncnc2cc1OC)C(C)(C)C
IC50 [1]: 0.00031 µM
IC50 [2]: 0.46 µM

CN[C@@H](C)C(=O)N[C@H](C(=O)N1CCC[C@H]1C(=O)Nc1cc2c(NCCCCCCCCNc3ncnc4cc(OC)c(NC(=O)[C@@H]5CCCN5C(=O)[C@@H](NC(=O)[C@H](C)NC)C(C)(C)C)cc34)ncnc2cc1OC)C(C)(C)C
IC50 [1]: 0.0003 µM
IC50 [2]: 0.43 µM

CN[C@@H](C)C(=O)N[C@H](C(=O)N1CCC[C@H]1C(=O)Nc1cc2c(N3CCN(c4ncnc5cc(OC)c(NC(=O)[C@@H]6CCCN6C(=O)[C@@H](NC(=O)[C@H](C)NC)C(C)(C)C)cc45)CC3)ncnc2cc1OC)C(C)(C)C
IC50 [1]: 0.0023 µM

CN[C@@H](C)C(=O)N[C@H](C(=O)N1CCC[C@H]1C(=O)Nc1cc2c(NCCOCCOCCNc3ncnc4cc(OC)c(NC(=O)[C@@H]5CCCN5C(=O)[C@@H](NC(=O)[C@H](C)NC)C(C)(C)C)cc34)ncnc2cc1OC)C(C)(C)C
IC50 [1]: 0.00504 µM
IC50 [2]: 5.65 µM

CN[C@@H](C)C(=O)N[C@H](C(=O)N1CCC[C@H]1C(=O)Nc1cc2c(OCC#CCOc3ncnc4cc(OC)c(NC(=O)[C@@H]5CCCN5C(=O)[C@@H](NC(=O)[C@H](C)NC)C(C)(C)C)cc34)ncnc2cc1OC)C(C)(C)C
IC50 [1]: 0.0004 µM
IC50 [2]: 0.86 µM

CN[C@@H](C)C(=O)N[C@H](C(=O)N1CCC[C@H]1C(=O)Nc1cc2c(NC[C@H]3CC[C@H](CNc4ncnc5cc(OC)c(NC(=O)[C@@H]6CCCN6C(=O)[C@@H](NC(=O)[C@H](C)NC)C6CCCCC6)cc45)CC3)ncnc2cc1OC)C1CCCCC1
IC50 [1]: 0.00103 µM
IC50 [2]: 0.66 µM

CN[C@@H](C)C(=O)N[C@H](C(=O)N1CCC[C@H]1C(=O)Nc1cc2c(NC[C@H]3CC[C@@H](CNc4ncnc5cc(OC)c(NC(=O)[C@@H]6CCCN6C(=O)[C@@H](NC(=O)[C@H](C)NC)C(C)(C)C)cc45)CC3)ncnc2cc1OC)C(C)(C)C
IC50 [1]: 0.00041 µM
IC50 [2]: < 0.62 µM

CN[C@@H](C)C(=O)N[C@H](C(=O)N1CCC[C@H]1C(=O)Nc1cc2c(OCC#CC#CCOc3ncnc4cc(OC)c(NC(=O)[C@@H]5CCCN5C(=O)[C@@H](NC(=O)[C@H](C)NC)C(C)(C)C)cc34)ncnc2cc1OC)C(C)(C)C
IC50 [10]: > 50 µM
IC50 [11]: Not Active
IC50 [1]: 0.0002 µM
IC50 [25]: 12.6 µM
IC50 [26]: > 50 µM
IC50 [2]: 0.24 µM

CN[C@@H](C)C(=O)N[C@H](C(=O)N1CCC[C@H]1C(=O)N(CCc1ccccc1)C(=O)C(F)(F)F)[C@H](C)OCC#CC#CCO[C@H](C)[C@H](NC(=O)[C@H](C)NC)C(=O)N1CCC[C@H]1C(=O)N(CCc1ccccc1)C(=O)C(F)(F)F
Activity [30]: Toxic

CN[C@@H](C)C(=O)N[C@H](C(=O)N1CCC[C@H]1C(=O)Nc1cc2c(NCc3ccc(CNc4ncnc5cc(OC)c(NC(=O)[C@@H]6CCCN6C(=O)[C@@H](NC(=O)[C@H](C)NC)C(C)(C)C)cc45)cc3)ncnc2cc1OC)C(C)(C)C
IC50 [1]: 0.0043 µM
